Target: full-length recombinant human FYN A (Homo sapiens (Human), UniProt P06241)
Assay: ADP-Glo Kinase Assay of FYN kinase inhibition
Type: biochemical
Conditions: primary screen, initial compounds
How it was run: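 ADP-Glo read-out of peptide phosphorylation after 90 min RT with 12.5 pmol ATP and 100 pg 12-mer substrate. Enzyme was N-GST full-length human FYN A from insect cells, 3 pg, pre-incubated 30 min with compound, 10 points from 10 μM top, 3-fold steps; IC50 from curve.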

Chain of full-length recombinant human FYN A (P06241 whole entry): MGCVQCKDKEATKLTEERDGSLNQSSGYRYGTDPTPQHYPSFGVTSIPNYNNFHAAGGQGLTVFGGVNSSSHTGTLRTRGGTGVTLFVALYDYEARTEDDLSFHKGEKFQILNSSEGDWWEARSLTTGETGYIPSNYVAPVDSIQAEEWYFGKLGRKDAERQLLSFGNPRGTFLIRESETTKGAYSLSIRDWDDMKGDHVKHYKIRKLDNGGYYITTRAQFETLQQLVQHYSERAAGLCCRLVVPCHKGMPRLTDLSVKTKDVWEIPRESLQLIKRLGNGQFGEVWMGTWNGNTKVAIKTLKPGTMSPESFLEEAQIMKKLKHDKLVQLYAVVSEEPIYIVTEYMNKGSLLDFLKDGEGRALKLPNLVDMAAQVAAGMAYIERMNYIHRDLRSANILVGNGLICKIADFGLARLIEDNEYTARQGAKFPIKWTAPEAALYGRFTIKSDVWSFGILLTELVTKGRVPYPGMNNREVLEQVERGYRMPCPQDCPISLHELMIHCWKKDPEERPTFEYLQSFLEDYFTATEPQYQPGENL

Row | Compound | IC50 [µM]
1 | COc1cc(-c2cnc3ccc(-c4ccc(CO)cc4)nn23)ccc1O [Compound 407, 4-[6-[4-(hydroxymethyl)phenyl]imidazo [1,2-b]pyridazin-3-yl]-2-methoxy-phenol] | 0.125
2 | Fc1ccc(-c2ccc3ncc(-c4ccc5c(c4)OCO5)n3n2)cc1 [Compound 415, 3-(1,3-benzodioxol-5-yl)-6-(4-fluorophenyl) imidazo[1,2-b]pyridazine] | 7.6
3 | COc1ccc(-c2ccc3ncc(-c4ccc(OC)c(OC)c4)n3n2)cc1OC [Compound 416, 3,6-bis(3,4-dimethoxyphenyl) imidazo[1,2-b]pyridazine] | 0.538
4 | Nc1cccc(-c2ccc3ncc(-c4ccc5c(c4)OCO5)n3n2)c1 [Compound 430, 3-[3-(1,3-benzodioxol-5-yl)imidazo[1,2-b]pyridazin-6-yl]aniline] | 0.843
5 | c1cc(-c2ccc3ncc(-c4ccc5c(c4)OCO5)n3n2)co1 [Compound 431, 3-(1,3-benzodioxol-5-yl)-6-(3-furyl) imidazo[1,2-b]pyridazine] | 1.6
6 | COc1ccc(-c2ccc3ncc(-c4ccc(CO)cc4)n3n2)cc1OC [Compound 432, [4-[6-(3,4-dimethoxyphenyl)imidazo[1,2-b]pyridazin-3-yl]phenyl] methanol] | 3.94
7 | CN(C)CCNC(=O)c1cccc(-c2ccc3ncc(-c4ccc5c(c4)OCO5)n3n2)c1 [Compound 433, 3-[3-(1,3-benzodioxol-5-yl)imidazo[1,2-b]pyridazin-6-yl]-N-(2-dimethylamino-ethyl)benzamide] | 0.393
8 | COc1ccc(-c2ccc3ncc(-c4cccc(CO)c4)n3n2)cc1OC [Compound 436, [3-[6-(3,4-dimethoxyphenyl)imidazo[1,2-b]pyridazin-3-yl]phenyl] methanol] | 0.749
9 | CNc1ccc2ncc(-c3ccsc3)n2n1 [Compound 437_0074, N-methyl-3-(3-thienyl)imidazo [1,2-b]pyridazin-6-amine] | 4.23
10 | CNc1ccc2ncc(-c3ccc(OC)c(OC)c3)n2n1 [Compound 437_0079, 3-(3,4-dimethoxyphenyl)-N-methyl-imidazo[1,2-b]pyridazin-6-amine] | 1.24
11 | CNc1ccc2ncc(-c3ccc(OC)cc3)n2n1 [Compound 437_0280, 3-(4-methoxyphenyl)-N-methyl-imidazo[1,2-b]pyridazin-6-amine] | 4.16
12 | CNc1ccc2ncc(-c3cccc(O)c3)n2n1 [Compound 437_0284, 3-[6-(methyl-amino)imidazo[1,2-b]pyridazin-3-yl]phenol] | 2.18
13 | CNc1ccc2ncc(-c3ccc(OC)nc3)n2n1 [Compound 437_0311, 3-(6-methoxy-3-pyridyl)-N-methyl-imidazo[1,2-b]pyridazin-6-amine] | 4.46
14 | CNc1ccc2ncc(-c3ccc(F)cc3)n2n1 [Compound 437_0339, 3-(4-fluoro-phenyl)-N-methyl-imidazo[1,2-b]pyridazin-6-amine] | 3.26
15 | CNc1ccc2ncc(-c3ccccc3O)n2n1 [Compound 437_0340, 2-[6-(methylamino)imidazo[1,2-b]pyridazin-3-yl]phenol] | 1.13
16 | CNc1ccc2ncc(-c3cccc(C(=O)N(C)C)c3)n2n1 [Compound 437_0349, N,N-dimethyl-3-[6-(methylamino)imidazo[1,2-b]pyridazin-3-yl]benzamide] | 2.94
17 | CNc1ccc2ncc(-c3cnn(C)c3)n2n1 [Compound 437_7468, N-methyl-3-(1-methylpyrazol-4-yl)imidazo[1,2-b]pyridazin-6-amine] | 5.63
18 | c1ccc(-c2ccc3ncc(-c4ccc5c(c4)OCO5)n3n2)cc1 [Compound 439, 3-(1,3-benzodioxol-5-yl)-6-phenyl-imidazo[1,2-b]pyridazine] | 3.09
19 | COc1ccc(-c2cnc3ccc(-c4cccs4)nn23)cc1OC [Compound 441, 3-(3,4-dimethoxy-phenyl)-6-(2-thienyl)imidazo [1,2-b]pyridazine] | 0.211

Next, values leading:

Row | IC50 [µM] | Compound
20 | 3.49 | CNC(=O)c1cccc(-c2ccc3ncc(-c4ccc(OC)c(OC)c4)n3n2)c1 [Compound 408, 3-[3-(3,4-dimethoxyphenyl)imidazo[1,2-b]pyridazin-6-yl]-N-methyl-benzamide]
21 | 0.598 | CC(=O)Nc1cccc(-c2ccc3ncc(-c4ccncc4)n3n2)c1 [Compound 409, N-[3-[3-(4-pyridyl)imidazo [1,2-b]pyridazin-6-yl]phenyl] acetamide]
22 | 2.35 | c1cncc(-c2cnc3ccc(-c4ccoc4)nn23)c1 [Compound 410, 6-(3-furyl)-3-(3-pyridyl)imidazo [1,2-b]pyridazine]
23 | 0.259 | COc1ccc(-c2ccc3ncc(-c4cccc(NC(C)=O)c4)n3n2)cc1OC [Compound 411, N-[3-[6-(3,4-dimethoxyphenyl)imidazo[1,2-p]pyridazin-3-yl]phenyl] acetamide]
24 | 1.06 | Oc1cccc(-c2cnc3ccc(-c4ccoc4)nn23)c1 [Compound 412, 3-[6-(3-furyl)imidazo[1,2-b]pyridazin-3-yl]phenol]
25 | 0.371 | CC(=O)c1cccc(-c2cnc3ccc(-c4ccncc4)nn23)c1 [Compound 413, 1-[3-[6-(4-pyridyl)imidazo [1,2-b]pyridazin-3-yl]phenyl] ethanone]
26 | 0.977 | Cc1cccc(Cc2ccc3ncc(-c4ccncc4)n3n2)c1 [Compound 414, 6-(m-tolylmethyl)-3-(4-pyridyl)imidazo [1,2-b]pyridazine]
27 | 2.74 | COc1ccccc1-c1ccc2ncc(-c3cccc(O)c3)n2n1 [Compound 417, 3-[6-(2-methoxyphenyl)imidazo[1,2-b]pyridazin-3-yl]phenol]
28 | 1.46 | OCc1ccc(-c2cnc3ccc(-c4ccccc4)nn23)cc1 [Compound 418, [4-(6-phenylimidazo [1,2-b]pyridazin-3-yl)phenyl] methanol]
29 | 21.5 | CC(=O)Nc1ccc(-c2ccc3ncc(-c4ccc(CO)cc4)n3n2)cc1 [Compound 419, N-[4-[3-[4-(hydroxymethyl)phenyl]imidazo [1,2-b]pyridazin-6-yl]phenyl] acetamide]
30 | 0.102 | COc1cc(-c2cnc3ccc(-c4cccc(CO)c4)nn23)ccc1O [Compound 420, 4-[6-[3-(hydroxymethyl)phenyl]imidazo [1,2-b]pyridazin-3-yl]-2-methoxy-phenol]
31 | 0.179 | CC(=O)c1cccc(-c2cnc3ccc(-c4cccc(CO)c4)nn23)c1 [Compound 421, 1-[3-[6-[3-(hydroxymethyl)phenyl]imidazo [1,2-b]pyridazin-3-yl]phenyl] ethanone]
32 | 0.694 | COc1cc(-c2ccc3ncc(-c4cccs4)n3n2)ccc1O [Compound 423, 2-methoxy-4-[3-(2-thienyl)imidazo[1,2-b]pyridazin-6-yl]phenol]
33 | 13.9 | O=C(NCCO)c1cccc(-c2ccc3ncc(-c4ccccc4)n3n2)c1 [Compound 424, N-(2-hydroxyethyl)-3-(3-phenyl-imidazo[1,2-b]pyridazin-6-yl)benzamide]
34 | 0.624 | c1ccc(Cc2ccc3ncc(-c4ccncc4)n3n2)cc1 [Compound 425, 6-benzyl-3-(4-pyridyl)imidazo [1,2-b]pyridazine]
35 | 11.2 | NC(=O)c1ccc(-c2ccc3ncc(-c4cccnc4)n3n2)cc1 [Compound 426, 4-[3-(3-pyridyl)imidazo [1,2-b]pyridazin-6-yl]benzamide]
36 | 1.23 | CC(=O)c1cccc(-c2cnc3ccc(-c4cccnc4)nn23)c1 [Compound 427, 1-[3-[6-(3-pyridyl)imidazo [1,2-b]pyridazin-3-yl]phenyl] ethanone]
37 | 1.78 | COc1cccc(-c2ccc3ncc(-c4cccc(C(C)=O)c4)n3n2)c1 [Compound 428, 1-[3-[6-(3-methoxyphenyl)imidazo[1,2-b]pyridazin-3-yl]phenyl] ethanone]
38 | 1.45 | Fc1ccc(Cc2ccc3ncc(-c4ccncc4)n3n2)cc1 [Compound 429, 6-[(4-fluorophenyl)methyl]-3-(4-pyridyl)imidazo [1,2-b]pyridazine]
39 | 0.525 | CC(=O)Nc1cccc(-c2cnc3ccc(-c4ccc(F)c(Cl)c4)nn23)c1 [Compound 434, N-[3-[6-(3-chloro-4-fluoro-phenyl)imidazo [1,2-b]pyridazin-3-yl]phenyl] acetamide]
40 | 1.14 | OCc1ccc(-c2cnc3ccc(-c4cccc(O)c4)nn23)cc1 [Compound 435, 3-[3-[4-(hydroxymethyl)phenyl]imidazo [1,2-b]pyridazin-6-yl]phenol]
41 | 0.582 | CC(=O)c1cccc(-c2ccc3ncc(-c4cccc(C(C)=O)c4)n3n2)c1 [Compound 437, 1-[3-[3-(3-acetylphenyl)imidazo[1,2-b]pyridazin-6-yl]phenyl] ethanone]
42 | 1.75 | CNc1ccc2ncc(-c3cccc(NC(C)=O)c3)n2n1 [Compound 437_0081, N-[3-[6-(methylamino)imidazo[1,2-b]pyridazin-3-yl]phenyl] acetamide]
43 | 1.16 | CN(C)CCNC(=O)c1cccc(-c2ccc3ncc(-c4cccs4)n3n2)c1 [Compound 438, N-(2-dimethyl-aminoethyl)-3-[3-(2-thienyl)imidazo[1,2-b]pyridazin-6-yl]benzamide]
44 | 1.81 | Oc1cccc(-c2ccc3ncc(-c4cccnc4)n3n2)c1 [Compound 440, 3-[3-(3-pyridyl)imidazo [1,2-b]pyridazin-6-yl]phenol]
45 | 0.987 | Oc1cccc(-c2ccc3ncc(-c4cccc(O)c4)n3n2)c1 [Compound 442, 3-[3-(3-hydroxyphenyl)imidazo[1,2-b]pyridazin-6-yl]phenol]
46 | 2.24 | CC(=O)Nc1cccc(-c2ccc3ncc(-c4ccc(CO)cc4)n3n2)c1 [Compound 443, N-[3-[3-[4-(hydroxymethyl)phenyl]imidazo [1,2-b]pyridazin-6-yl]phenyl] acetamide]
47 | 4.81 | CC(=O)c1cccc(-c2cnc3ccc(-c4ccc(F)cc4)nn23)c1 [Compound 444, 1-[3-[6-(4-fluorophenyl)imidazo[1,2-b]pyridazin-3-yl]phenyl] ethanone]
